Measured values from US20070059720A9 (priority 2004, published 2007).

Assays:
[1] = target: T1, MKP3 (Homo sapiens, UniProt Q16828); experiment: Phosphatase assay with pNPP on V5 immunoprecipitates of treated MKP3 cells; format: biochemical; conditions: MKP3 transfectants treated 2 hours; relative to control-treated (intermediate)
T1 construct: expressed in transfected cells
T1 sequence (Q16828 1-381): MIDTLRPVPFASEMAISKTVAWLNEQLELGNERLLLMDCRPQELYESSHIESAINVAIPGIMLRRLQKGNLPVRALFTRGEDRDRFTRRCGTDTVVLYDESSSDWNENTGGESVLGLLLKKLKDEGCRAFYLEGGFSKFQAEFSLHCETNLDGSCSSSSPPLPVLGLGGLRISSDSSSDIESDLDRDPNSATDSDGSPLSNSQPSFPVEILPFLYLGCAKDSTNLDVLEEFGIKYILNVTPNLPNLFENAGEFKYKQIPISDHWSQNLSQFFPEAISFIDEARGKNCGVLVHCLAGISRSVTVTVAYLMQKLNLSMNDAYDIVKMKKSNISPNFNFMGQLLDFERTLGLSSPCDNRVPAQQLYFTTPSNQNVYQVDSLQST
Method: MKP3-overexpressing cells and control vector transfected cells were treated as described above with ethanol, E2, or 4-OH-Tam, and lysed in buffer B containing 20 mM Tris-HCl (pH 7.0), 150 mM NaCl, 1% Triton X-100, 0.25 M sucrose, 1 mM EDTA, 1 mM EGTA, 0.1% β-mercaptoethanol, 1 mM PMSF, and 1 μg/ml leupeptin. The cell lysates were cleared and the protein concentrations were determined as detailed above. 300 μg of cell lysate at 1 μg/μl was immunoprecipitated by the addition of 1 μg anti-V5 antiserum, and 20 μl 50% protein G slurry. […] The reactions were then quenched by the addition of 20 μl 5N NaOH, and pNPP hydrolysis was measured at 405 nm. […] The amount of product p-nitrophenol was determined from the absorbance at 405 nm. […]
The observed changes in pMAPK levels in MKP3 overexpressing cells was further characterized. […] Using the artificial substrate pNPP to measure endogenous phosphatase activity, there was an inverse relationship between measured phosphatase activity and pMAPK levels in the MKP3 transfectants. […] There were no observed changes in the ability of MKP3 to bind to MAPK, as measured by co-immunoprecipitation and immunoblot analysis (FIG. 5H). When the levels of MKP3-bound ERK2 were compared between the different hormonal treatments, no differences were detected (C, E, T, IP:V5 lanes). […]

[2] = tested on: MCF-7-MKP3 cells; experiment: Anchorage-independent soft agar colony formation, MKP3-overexpressing MCF-7 transfectants; format: cell-based, human
Method: MCF-7 cells were originally obtained from Dr. Benita Katzenellebogen, but have been maintained in the inventors' laboratory for over 10 years (Fuqua et al., 2000). MCF-7 cells were maintained in Minimal Essential Medium (MEM, InVitrogen) supplemented with 5% fetal bovine serum (Summit Biotechnology, Fort Collins, Colo.), 200 U/ml penicillin, and 200 μg/ml streptomycin. Cells were incubated at 37° C. in 5% CO2. To generate MCF-7 cells stably overexpressing MKP3, 5 μg of the plasmid pcDNA3-MKP3-V5 (Furukawa et al., 2003) or empty vector (pcDNA3-His-V5, InVitrogen), were transfected into the cells using Fugene 6 reagent Roche Clinical Laboratories, Indianapolis, Ind.) in 100 mm tissue culture dishes following the manufacturer's protocol. Stable clones overexpressing MKP3 were selected as described (Fuqua et al., 2000), and positive clones were identified using immunoblot analysis with an anti-V5 antibody (1:5000 dilution)
Cells were starved for 2 days in PRF MEM (InVitrogen) supplemented with 5% fetal bovine serum (FBS, Summit Biotechnology, Fort Collins, Colo.), 6 ng/ml insulin, 200 units/ml penicillin, and 200 μg/ml streptomycin. Soft agar assays were performed in sixwell plates. Into each well, 1.5 ml of prewarmed (50° C.) 0.7% SeaPlaque agarose (FMC, Rockland, Me.) was added and dissolved in PRF MEM supplemented with 5% charcoal stripped FBS (Summit, Fort Collins, Colo.) to serve as the bottom layer, and allowed to solidify at 4° C. until to use. 0.5×10^4 cells as a single cell suspension were suspended in prewarmed (37° C.) of the same media, 4 ml of 0.5% SeaPlaque agarose was then added, and this suspension then plated as the top layer by adding it dropwise to the solidified bottom layer plates. Plates were cooled for 2 hours, and then transferred to a 37° C. humidified incubator. Two days after plating, media containing control vehicle, 1 nM estradiol, 100 nM 4-OH-Tam, 100 nM OHT plus 10 nM ICI, or 100 nM OHT plus 20 nM […] was added to the top cell layer, and the appropriate media was replaced every two days. After 14 days, the colonies were fixed, and the colony number of colonies >50 cells from quadruplicate assays were then counted. The data shown is the mean colony number of four plates, and is representative of two independent experiments.
In pancreatic cells, ectopic expression of MKP3 is reported to result in a suppression of cell growth (Fuqua et al., 2003). Thus, the growth characteristics of the MCF-7 stable MKP3 transfectants under different hormonal conditions were investigated using anchorageindependent soft agar assay (FIG. 4B).

| Structure (SMILES) | MKP3 phosphatase activity (pNPP hydrolysis) [1] | increase in number of soft agar colonies formed in the presence of Tam, MKP3-overexpressing transfectants compared to vector control cells ([2]; 100 nM 4-OH-Tam, two MKP3 clones, P<0.05) | estrogen-induced colony formation of MCF-7-MKP3 clones ([2]; 1 nM estradiol, versus vector control cells) |
| --- | --- | --- | --- |
| CC/C(=C(\c1ccccc1)c1ccc(OCCN(C)C)cc1)c1ccccc1 [Tam, tamoxifen] | lowest | ~20 fold | – |
| C[C@]12CC[C@@H]3c4ccc(O)cc4CC[C@H]3[C@@H]1CC[C@@H]2O [E2, 17β-Estradiol] | highest | – | equivalent to those obtained with vector control cells |
